Assay results: ChEMBL document CHEMBL5321287, “Discovery, Synthesis, and Evaluation of Novel Dual Inhibitors of a Vascular Endothelial Growth Factor Receptor and Poly(ADP-Ribose) Polymerase for BRCA Wild-Type Breast Cancer Therapy” (J Med Chem, 2023)
Activity calls are given as the source filed them. The calls are words filed in the database; no cut-off is given here.

What was measured:
MDA-MB-231 [1] = assay: Induction of DNA damage in human MDA-MB-231 cells assessed as increase in gamma-H2AX level at 4 uM incubated for 48 hrs by DAPI staining based immunofluorescence analysis; format: functional, cell-based
MDA-MB-231 [2] = assay: Antimigratory activity in human MDA-MB-231 cells assessed as upregulation of E-cadherin level at 4 uM by DAPI staining based immunofluorescence analysis; format: functional, cell-based
MCF7 [3] = assay: Inhibition of colony formation in human MCF7 cells at 4 uM incubated for 10 days in presence of 1:1 of compound:Olaparib by crystal violet staining based assay; format: functional, cell-based; conditions: time 10.0 day
MCF7 [4] = assay: Induction of DNA damage in human MCF7 cells assessed as increase in gamma-H2AX level at 4 uM incubated for 48 hrs by DAPI staining based immunofluorescence analysis; format: functional, cell-based
MCF7 [5] = assay: Antimigratory activity against human MCF7 cells at 4 uM incubated for 1 hr in presence of 1:1 of compound:Olaparib by wound healing assay; format: functional, cell-based
MCF7 [6] = assay: Antimigratory activity in human MCF7 cells assessed as upregulation of E-cadherin level at 4 uM incubated for 2 days by immunoblot analysis; format: functional, cell-based; conditions: time 2.0 day
MDA-MB-231 [7] = assay: Induction of cell cycle arrest at S phase in human MDA-MB-231 cells at 4 uM by Annexin-V-FLUOS staining based flow cytometry; format: functional
MCF7 [8] = assay: Induction of apoptosis in human MCF7 cells assessed as increase in Bax level at 4 uM incubated for 2 days in presence of 1:1 of compound:Olaparib by immunoblot analysis; format: functional, cell-based; conditions: time 2.0 day
MCF7 [9] = assay: Induction of HR DNA repair in human MCF7 cells assessed as decrease in RAD51 level at 4 uM incubated for 48 hrs in presence of 1:1 of compound:Olaparib by DAPI staining based immunofluorescence analysis; format: functional, cell-based
MDA-MB-231 [10] = assay: Induction of HR DNA repair in human MDA-MB-231 cells xenografted in BALB/c nude mouse assessed as decrease in BRCA1 level at 50 mg/kg, po for 14 days in presence of 1:1 of compound:Pazopanib by H and E staining based IHC analysis; format: functional, organism-based; conditions: time 14.0 day
MCF7 [11] = assay: Antiproliferation activity against human MCF7 cells assessed as decrease in Ki67 expression at 4 uM incubated for 48 hrs in presence of 1:1 of compound:Olaparib by immunofluorescence analysis; format: functional, cell-based
MCF7 [12] = assay: Downregulation of Olaparib-induced PAR expression in human MCF7 cells at 4 uM incubated for 2 days by Western blot analysis; format: functional, cell-based; conditions: time 2.0 day
[13] = biological target: Vascular endothelial growth factor receptor 1 (Homo sapiens, UniProt P17948); assay: Inhibition of VEGFR1 phosphorylation at tyr1333 residue in human MDA-MB-231 cells xenografted in BALB/c nude mouse at 50 mg/kg, po for 14 days in presence of 1:1 of compound:Olaparib by H and E staining based IHC analysis; format: organism-based; conditions: time 14.0 day
Chain of Vascular endothelial growth factor receptor 1 (P17948 whole entry): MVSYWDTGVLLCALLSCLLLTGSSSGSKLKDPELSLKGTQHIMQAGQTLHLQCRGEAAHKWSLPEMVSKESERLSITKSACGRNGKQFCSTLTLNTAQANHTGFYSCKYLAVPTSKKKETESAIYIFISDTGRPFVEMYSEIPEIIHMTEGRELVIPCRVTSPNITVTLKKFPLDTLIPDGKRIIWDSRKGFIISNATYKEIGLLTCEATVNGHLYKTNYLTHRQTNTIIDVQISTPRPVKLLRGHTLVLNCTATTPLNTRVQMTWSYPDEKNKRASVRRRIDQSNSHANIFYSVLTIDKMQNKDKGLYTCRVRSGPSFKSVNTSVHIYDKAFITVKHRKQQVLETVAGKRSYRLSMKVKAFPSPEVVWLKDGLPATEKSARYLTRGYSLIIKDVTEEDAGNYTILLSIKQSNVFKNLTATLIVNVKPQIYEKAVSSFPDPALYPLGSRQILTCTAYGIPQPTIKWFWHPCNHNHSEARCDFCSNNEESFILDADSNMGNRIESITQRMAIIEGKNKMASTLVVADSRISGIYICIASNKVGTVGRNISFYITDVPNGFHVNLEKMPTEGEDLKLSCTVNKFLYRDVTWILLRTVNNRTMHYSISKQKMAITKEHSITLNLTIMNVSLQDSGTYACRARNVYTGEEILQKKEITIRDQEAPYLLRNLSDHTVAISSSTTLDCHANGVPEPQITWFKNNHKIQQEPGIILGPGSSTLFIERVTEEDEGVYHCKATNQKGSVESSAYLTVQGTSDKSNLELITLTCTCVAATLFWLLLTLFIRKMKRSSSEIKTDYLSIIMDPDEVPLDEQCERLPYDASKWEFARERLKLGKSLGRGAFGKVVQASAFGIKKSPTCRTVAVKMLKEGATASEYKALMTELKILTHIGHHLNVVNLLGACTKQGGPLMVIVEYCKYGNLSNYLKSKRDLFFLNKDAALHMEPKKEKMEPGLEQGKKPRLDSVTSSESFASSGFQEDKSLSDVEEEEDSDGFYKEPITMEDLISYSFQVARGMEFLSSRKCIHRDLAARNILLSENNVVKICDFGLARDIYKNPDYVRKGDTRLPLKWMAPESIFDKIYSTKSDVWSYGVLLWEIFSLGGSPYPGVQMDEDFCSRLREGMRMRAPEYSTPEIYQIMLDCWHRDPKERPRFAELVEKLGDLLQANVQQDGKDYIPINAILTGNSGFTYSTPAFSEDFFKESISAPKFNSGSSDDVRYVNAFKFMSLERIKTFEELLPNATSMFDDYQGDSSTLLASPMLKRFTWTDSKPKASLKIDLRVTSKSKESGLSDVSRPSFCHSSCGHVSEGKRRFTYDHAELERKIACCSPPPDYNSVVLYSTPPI

MDA-MB-231 [14] = assay: Induction of apoptosis in human MDA-MB-231 cells assessed as increase in Bax level at 4 uM incubated for 2 days in presence of 1:1 of compound:Olaparib by immunoblot analysis; format: functional, cell-based; conditions: time 2.0 day
MDA-MB-231 [15] = assay: Induction of apoptosis in human MDA-MB-231 cells assessed as decrease in Bcl-2 level at 4 uM incubated for 2 days in presence of 1:1 of compound:Olaparib by immunoblot analysis; format: functional, cell-based; conditions: time 2.0 day
MDA-MB-231 [16] = assay: Antimigratory activity in human MDA-MB-231 cells assessed as downregulation of MMP-2 level at 4 uM incubated for 2 days in presence of 1:1 of compound:Olaparib by immunoblot analysis; format: functional, cell-based; conditions: time 2.0 day
MDA-MB-231 [17] = assay: Antimigratory activity in human MDA-MB-231 cells assessed as upregulation of E-cadherin level at 4 uM incubated for 2 days by immunoblot analysis; format: functional, cell-based; conditions: time 2.0 day
MCF7 [18] = assay: Antiproliferative activity against human MCF7 cells assessed as cell growth inhibition
MDA-MB-231 [19] = assay: Antimigratory activity against human MDA-MB-231 cells at 4 uM incubated for 1 hr in presence of 1:1 of compound:Olaparib by wound healing assay; format: functional, cell-based
MCF7 [20] = assay: Induction of apoptosis in human MCF7 cells assessed as increase in cleaved caspase-3 level at 4 uM incubated for 2 days in presence of 1:1 of compound:Olaparib by immunoblot analysis; format: functional, cell-based; conditions: time 2.0 day
MDA-MB-231 [21] = assay: Antimigratory activity in human MDA-MB-231 cells assessed as upregulation of E-cadherin level at 4 uM in presence of 1:1 of compound:Olaparib by DAPI staining based immunofluorescence analysis; format: functional, cell-based
MDA-MB-231 [22] = assay: Induction of hypoxia in human MDA-MB-231 cells assessed as upregulation of HIF-1alpha level at 4 uM incubated for 2 days in presence 1:1 of Olaparib by Western blot analysis; format: functional, cell-based; conditions: time 2.0 day
MCF7 [23] = assay: Antiinvasive activity against human MCF7 cells at 4 uM incubated for 12 hrs in presence of 1:1 of compound:Olaparib by transwell assay; format: functional, cell-based
MDA-MB-231 [24] = assay: Induction of DNA damage in human MDA-MB-231 cells xenografted in BALB/c nude mouse assessed as increase in gamma-H2AX level at 50 mg/kg, po for 14 days in presence of 1:1 of compound:Olaparib by H and E staining based IHC analysis; format: functional, organism-based; conditions: time 14.0 day
MDA-MB-231 [25] = assay: Induction of HR DNA repair in human MDA-MB-231 cells assessed as decrease in RAD51 level at 4 uM incubated for 48 hrs by DAPI staining based immunofluorescence analysis; format: functional, cell-based
MCF7 [26] = assay: cells; conditions: Homo sapiens
[27] = biological target: Vascular endothelial growth factor receptor 2 (Homo sapiens, UniProt P35968); conditions: MDA-MB-231, dose 25-50 mg/kg, route po, time 14.0 day
Chain of Vascular endothelial growth factor receptor 2 (P35968 whole entry): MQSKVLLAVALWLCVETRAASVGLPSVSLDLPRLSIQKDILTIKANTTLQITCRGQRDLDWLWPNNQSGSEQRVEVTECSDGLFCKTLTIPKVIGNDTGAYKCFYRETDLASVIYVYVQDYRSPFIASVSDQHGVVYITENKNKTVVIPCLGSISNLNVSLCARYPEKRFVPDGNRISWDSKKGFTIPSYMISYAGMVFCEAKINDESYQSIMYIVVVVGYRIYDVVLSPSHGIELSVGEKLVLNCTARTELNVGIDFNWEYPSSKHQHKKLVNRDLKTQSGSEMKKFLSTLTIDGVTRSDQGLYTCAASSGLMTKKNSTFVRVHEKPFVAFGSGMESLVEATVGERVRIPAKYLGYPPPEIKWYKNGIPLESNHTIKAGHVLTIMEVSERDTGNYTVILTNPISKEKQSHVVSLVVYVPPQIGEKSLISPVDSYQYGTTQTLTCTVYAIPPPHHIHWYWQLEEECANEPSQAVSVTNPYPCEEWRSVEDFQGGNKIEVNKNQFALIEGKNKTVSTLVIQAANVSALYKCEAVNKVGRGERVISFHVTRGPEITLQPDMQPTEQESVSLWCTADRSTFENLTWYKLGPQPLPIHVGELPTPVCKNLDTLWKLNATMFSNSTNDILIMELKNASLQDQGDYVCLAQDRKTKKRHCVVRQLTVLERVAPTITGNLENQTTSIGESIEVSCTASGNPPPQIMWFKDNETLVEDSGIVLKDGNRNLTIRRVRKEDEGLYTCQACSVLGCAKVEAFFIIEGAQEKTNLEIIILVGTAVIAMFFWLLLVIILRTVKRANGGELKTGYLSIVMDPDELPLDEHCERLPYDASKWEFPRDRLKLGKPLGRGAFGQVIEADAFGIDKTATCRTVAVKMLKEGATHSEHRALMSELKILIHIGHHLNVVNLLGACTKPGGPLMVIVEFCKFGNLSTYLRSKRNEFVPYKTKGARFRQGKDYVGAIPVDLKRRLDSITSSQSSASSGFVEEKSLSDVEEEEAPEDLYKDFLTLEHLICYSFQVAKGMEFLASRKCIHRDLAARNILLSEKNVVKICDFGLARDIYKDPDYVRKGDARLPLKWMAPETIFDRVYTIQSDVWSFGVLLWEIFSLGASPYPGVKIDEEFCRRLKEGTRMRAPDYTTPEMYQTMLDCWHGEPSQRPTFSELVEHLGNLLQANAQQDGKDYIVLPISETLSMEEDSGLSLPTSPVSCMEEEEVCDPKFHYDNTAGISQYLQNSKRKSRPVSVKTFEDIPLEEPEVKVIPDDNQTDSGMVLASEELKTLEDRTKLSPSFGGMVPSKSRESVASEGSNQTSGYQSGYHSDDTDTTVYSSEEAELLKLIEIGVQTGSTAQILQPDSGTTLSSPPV

MCF7 [28] = assay: Induction of HR DNA repair in human MCF7 cells assessed as decrease in RAD51 level at 4 uM incubated for 48 hrs by DAPI staining based immunofluorescence analysis; format: functional, cell-based
MDA-MB-231 [29] = assay: Induction of HR DNA repair in human MDA-MB-231 cells xenografted in BALB/c nude mouse assessed as decrease in RAD51 level at 50 mg/kg, po for 14 days in presence of 1:1 of compound:Olaparib by H and E staining based IHC analysis; format: functional, organism-based; conditions: time 14.0 day
MDA-MB-231 [30] = assay: Antimigratory activity in human MDA-MB-231 cells xenografted in lungs of BALB/c nude mouse assessed as decrease in MMP2 level in lungs at 50 mg/kg administered once a day measured after 14 days in presence of 1:1 of compound:Olaparib by IHC analysis; format: functional, organism-based; conditions: time 14.0 day
MCF7 [31] = assay: Antimigratory activity in human MCF7 cells assessed as upregulation of E-cadherin level at 4 uM by DAPI staining based immunofluorescence analysis; format: functional, cell-based
MDA-MB-231 [32] = assay: Induction of HR DNA repair in human MDA-MB-231 cells xenografted in BALB/c nude mouse assessed as decrease in FOXM1 level at 50 mg/kg, po for 14 days in presence of 1:1 of compound:Olaparib by Western blot analysis; format: functional, organism-based; conditions: time 14.0 day
MCF7 [33] = assay: Antimigratory activity in human MCF7 cells assessed as downregulation of MMP-2 level at 4 uM incubated for 2 days in presence of 1:1 of compound:Olaparib by immunoblot analysis; format: functional, cell-based; conditions: time 2.0 day

Question: `Cc1ccc(Nc2nccc(N(C)c3ccc4c(C)n(C)nc4c3)n2)cc1S(N)(=O)=O` [PAZOPANIB] was tested. Which Activity (MDA-MB-231 [1]) did it give?
Answer: Active

Question: What about the Activity (MDA-MB-231 [2]) of the same compound?
Answer: Active

Question: What about the inhibition (MCF7 [3]) of the same compound?
Answer: Active

Question: What about the Activity (MCF7 [4]) of the same compound?
Answer: Active

Question: And the Activity (MCF7 [5])?
Answer: Active

Question: And the Activity (MCF7 [6])?
Answer: Active

Question: What about the Activity (MDA-MB-231 [7]) of the same compound?
Answer: Active

Question: And the Activity (MCF7 [8])?
Answer: Active

Question: And the Activity (MCF7 [9])?
Answer: Active

Question: And the Activity (MDA-MB-231 [10])?
Answer: Active

Question: And the Activity (MCF7 [11])?
Answer: Active

Question: What about the Activity (MCF7 [12]) of the same compound?
Answer: inactive

Question: What about the inhibition [13] of the same compound?
Answer: Active

Question: And the Activity (MDA-MB-231 [14])?
Answer: Active

Question: What about the Activity (MDA-MB-231 [15]) of the same compound?
Answer: Active

Question: And the Activity (MDA-MB-231 [16])?
Answer: Active

Question: What about the Activity (MDA-MB-231 [17]) of the same compound?
Answer: Active

Question: What about the IC50 (MCF7 [18]) of the same compound?
Answer: > 10 µM

Question: What about the Activity (MDA-MB-231 [19]) of the same compound?
Answer: Active

Question: And the Activity (MCF7 [20])?
Answer: Active

Question: What about the Activity (MDA-MB-231 [21]) of the same compound?
Answer: Active

Question: And the Activity (MDA-MB-231 [22])?
Answer: Active

Question: What about the Activity (MCF7 [23]) of the same compound?
Answer: Active

Question: And the Activity (MDA-MB-231 [24])?
Answer: Active

Question: And the Activity (MDA-MB-231 [25])?
Answer: Active

Question: And the IC50 (MCF7 [26])?
Answer: > 10 µM

Question: What about the inhibition [27] of the same compound?
Answer: Active

Question: And the Activity (MCF7 [28])?
Answer: Active

Question: And the Activity (MDA-MB-231 [29])?
Answer: Active

Question: And the Activity (MDA-MB-231 [30])?
Answer: Active

Question: And the Activity (MCF7 [31])?
Answer: Active

Question: What about the Activity (MDA-MB-231 [32]) of the same compound?
Answer: Active

Question: And the Activity (MCF7 [33])?
Answer: Active
